Where two headings read alike, the source gives them in different places.
Key:
Wee1 kinase domain = target: T1, Wee1 kinase domain (Homo sapiens, UniProt P30291); experiment: Wee1 Kinase Biochemical Assay (ADP-Glo); conditions: 15 uM ATP
T1 construct: Wee1 kinase domain was purchased from Carna (catalog #05-177); purchased Carna 05-177
Method in brief: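 Compounds tested against 1 nM Wee1 kinase domain in Tris buffer containing 20 mM MgCl2, BSA and 2 mM DTT, with 15 uM ATP and poly(Lys,Tyr) substrate for 4 h at 25 °C. Luminescent ADP detection gave percent inhibition, normalized to DMSO and saturating inhibitor.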

[1] = test system: phosphorylation of Cdc2 Y15 (Wee1 substrate) in A427 cells; experiment: Phosphorylated Cdc2 MSD Electrochemiluminescence Assay; type: cell-based; conditions: Homo sapiens
Method in brief: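 Read-out: percent residual phospho-Cdc2 Y15 relative to DMSO and positive-control Wee1 inhibitor, measured by MSD electrochemiluminescence capture/detection antibody assay in cell lysates. A427 cells received duplicate 3-fold compound dilution series 20 h post-seeding, with 6 h total incubation at 37 °C.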

[2] = class symbols, 1 nM Wee1 enzyme, 4 hours at 25° C.
[3] = A-427, class symbols, read-out: A427 pCDC2 MSD IC50

T1 sequence (P30291 299-569 limits assumed): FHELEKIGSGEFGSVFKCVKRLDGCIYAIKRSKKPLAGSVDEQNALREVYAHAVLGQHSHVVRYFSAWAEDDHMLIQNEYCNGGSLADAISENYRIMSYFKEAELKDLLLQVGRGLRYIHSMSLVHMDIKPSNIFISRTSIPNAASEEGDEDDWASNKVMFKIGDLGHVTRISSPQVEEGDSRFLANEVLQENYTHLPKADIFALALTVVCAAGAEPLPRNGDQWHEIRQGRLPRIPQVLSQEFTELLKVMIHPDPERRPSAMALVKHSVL

SMILES | IC50 (Wee1 kinase domain; Wee1 kinase domain, ADP-Glo) [µM] | IC50 ([1]; A-427, pCDC2 MSD) [µM] | IC50 (Wee1 kinase domain; [2]) [µM] | IC50 [1, 3] [µM] | also measured
CN1CCN(c2ccc(Nc3ncc4c(n3)N(c3cccc(N=S(C)(C)=O)n3)[C@@H]3CC(C)(C)OC[C@]43C)cc2)CC1 [Example 100, Dimethyl((6-((4bR,8aR)-4b,7,7-trimethyl-2-((4-(4-methylpiperazin-1-yl)phenyl)amino)-4b,7,8,8a-tetrahydropyrano[3′,4′:4,5]pyrrolo[2,3-d]pyrimidin-9(5H)-yl)pyridin-2-yl)imino)-l6-sulfanone] | < 0.01 | < 0.1 | – | – | –
CC1(C)C[C@H]2N(c3cccc(N=S(C)(C)=O)n3)c3nc(NC(=O)[C@@H]4C[C@H]4c4cccnc4)ncc3[C@@]2(C)CO1 (single isomer, unassigned) [Example 401] | – | – | < 0.01 | 0.1 to 1 | –
C[C@H]1COC(=O)N1c1cccc(N2c3nc(Nc4ccc(OC5CCN(C)CC5)nc4)ncc3[C@@]3(C)COC(C)(C)C[C@@H]23)n1 (single isomer, unassigned) [Example 335] | < 0.01 | < 0.1 | – | – | –
CC1(C)C[C@H]2N(c3cccc([C@@H]4COCCN4)n3)c3nc(Nc4ccc(N5CCOCC5)cc4)ncc3[C@@]2(C)CO1 [Example 734, (4bR,8aR)-4b,7,7-trimethyl-9-(6-((R)-morpholin-3-yl)pyridin-2-yl)-N-(4-morpholinophenyl)-4b,5,7,8,8a,9-hexahydropyrano[3′,4′:4,5]pyrrolo[2,3-d]pyrimidin-2-amine] | – | – | < 0.01 | < 0.1 | –
C[C@H]1COC(=O)N1c1cccc(N2c3nc(Nc4ccc([C@@H]5CCNC5)cc4)ncc3[C@@]3(C)COC(C)(C)C[C@@H]23)n1 (single isomer, unassigned) [Example 275] | < 0.01 | 0.1 to 1 | – | – | –
CNCc1cccc(N2c3nc(Nc4ccc([C@@H]5CNC(=O)C5)cc4)ncc3[C@@]3(C)COC(C)(C)C[C@@H]23)n1 (single isomer, unassigned) [Example 63] | < 0.01 | 0.1 to 1 | – | – | –
CC1(C)C[C@H]2N(c3cccc(P(C)(C)=O)n3)c3nc(Nc4ccn(C5CCOCC5)c(=O)c4)ncc3[C@@]2(C)CO1 (single isomer, unassigned) [Example 780] | – | – | < 0.01 | < 0.1 | –
C[C@H]1COC(=O)N1c1cccc(N2c3nc(Nc4ccn(C)c(=O)c4)ncc3[C@@]3(C)COC(C)(C)C[C@@H]23)n1 (single isomer, unassigned) [Example 341] | < 0.01 | 0.1 to 1 | – | – | –
CN1CCN(c2ccc(Nc3ncc4c(n3)N(c3ccccn3)[C@@H]3CC(C)(C)OC[C@]43C)cc2)CC1 (single isomer, unassigned) [Example 722] | – | – | < 0.01 | 0.1 to 1 | –
CN1CCC(n2cc(Nc3ncc4c(n3)N(c3cccc(N=S(C)(C)=O)n3)[C@H]3CC(C)(C)OC[C@@]43C)cn2)CC1 (single isomer, unassigned) [Example 101] | 0.1 to 1 | 1 to 10 | – | – | –
CC[C@@]1(O)CCc2ccc(N3c4nc(Nc5ccn(C6CCN(C)CC6)c(=O)c5)ncc4[C@@]4(C)COC(C)(C)C[C@@H]34)nc21 [Example 812, 4-(((4bR,8aR)-9-((R)-7-ethyl-7-hydroxy-6,7-dihydro-5H-cyclopenta[b]pyridin-2-yl)-4b,7,7-trimethyl-4b,5,7,8,8a,9-hexahydropyrano[3′,4′:4,5]pyrrolo[2,3-d]pyrimidin-2-yl)amino)-1-(1-methylpiperidin-4-yl)pyridin-2(1H)-one] | – | – | – | – | IC50 (Wee1 kinase domain; 1 nM Wee1 enzyme, 4 hours at 25° C): < 0.01 µM; IC50 ([1]; A-427, read-out: A427 pCDC2 MSD IC50): 0.1 to 1 µM
CN1CC[C@@H]2CN(c3ccc(Nc4ncc5c(n4)N(c4cccc(N6CCCC6=O)n4)[C@@H]4CC(C)(C)OC[C@]54C)cc3)C[C@@H]21 [Example 686, 1-(6-((4bR,8aR)-4b,7,7-trimethyl-2-((4-((3aR,6aR)-1-methylhexahydropyrrolo[3,4-b]pyrrol-5(1H)-yl)phenyl)amino)-4b,7,8,8a-tetrahydropyrano[3′,4′:4,5]pyrrolo[2,3-d]pyrimidin-9(5H)-yl)pyridin-2-yl)pyrrolidin-2-one] | – | – | < 0.01 | 0.1 to 1 | –
C[C@H]1CCC(=O)N1c1cccc(N2c3nc(Nc4ccc(N5CC6(CN(C)C6)C5)cc4)ncc3[C@@]3(C)COCC[C@@H]23)n1 (single isomer, unassigned) [Example 776] | – | – | < 0.01 | 0.1 to 1 | –
CN1CC[C@@H]2CN(c3ccc(Nc4ncc5c(n4)N(c4cccc(C(C)(C)O)n4)[C@@H]4CC(C)(C)OC[C@]54C)cc3)C[C@@H]21 (single isomer, unassigned) [Example 437] | – | – | < 0.01 | 0.1 to 1 | –
CN1CC2(C1)CN(c1ccc(Nc3ncc4c(n3)N(c3cccc(N5CCCC5=O)n3)[C@@H]3CC(C)(C)OC[C@]43C)cc1)C2 [Example 690, 1-(6-((4bR,8aR)-4b,7,7-trimethyl-2-((4-(6-methyl-2,6-diazaspiro[3.3]heptan-2-yl)phenyl)amino)-4b,7,8,8a-tetrahydropyrano[3′,4′:4,5]pyrrolo[2,3-d]pyrimidin-9(5H)-yl)pyridin-2-yl)pyrrolidin-2-one] | – | – | < 0.01 | 0.1 to 1 | –
CN1CC[C@H](Oc2ccc(Nc3ncc4c(n3)N(c3cccc(C(C)(C)O)n3)[C@@H]3CC(C)(C)OC[C@]43C)cc2)C1 (single isomer, unassigned) [Example 421] | – | – | < 0.01 | < 0.1 | –

SMILES | IC50 (Wee1 kinase domain; Wee1 kinase domain, ADP-Glo) [µM] | IC50 ([1]; A-427, pCDC2 MSD) [µM] | IC50 (Wee1 kinase domain; [2]) [µM] | IC50 [1, 3] [µM] | also measured
CNCc1cccc(N2c3nc(Nc4ccc(N5CCS(=N)(=O)CC5)cc4)ncc3[C@@]3(C)COC(C)(C)C[C@@H]23)n1 (single isomer, unassigned) [Example 49] | < 0.01 | 0.1 to 1 | – | – | –
Cn1ncc(Nc2ncc3c(n2)N(c2cccc(N=S(C)(C)=O)n2)[C@@H]2CC(C)(C)OC[C@]32C)c1F (single isomer, unassigned) [Example 490] | – | – | < 0.01 | 0.1 to 1 | –
CN1CCN(c2cccc(Nc3ncc4c(n3)N(c3cccc(N=S(C)(C)=O)n3)[C@@H]3CC(C)(C)OC[C@]43C)c2)CC1 (single isomer, unassigned) [Example 486] | – | – | < 0.01 | < 0.1 | –
C[C@H]1COC(=O)N1c1cccc(N2c3nc(Nc4ccc(C5CCN(C)CC5)cc4)ncc3[C@@]3(C)COC(C)(C)C[C@@H]23)n1 (single isomer, unassigned) [Example 251] | < 0.01 | 0.1 to 1 | – | – | –
CN1CC2(C1)CN(c1ccc(Nc3ncc4c(n3)N(c3cccc(N5CCOC5=O)n3)[C@@H]3CC(C)(C)OC[C@]43C)cc1)C2 [Example 707, 3-(6-((4bR,8aR)-4b,7,7-trimethyl-2-((4-(6-methyl-2,6-diazaspiro[3.3]heptan-2-yl)phenyl)amino)-4b,7,8,8a-tetrahydropyrano[3′,4′:4,5]pyrrolo[2,3-d]pyrimidin-9(5H)-yl)pyridin-2-yl)oxazolidin-2-one] | – | – | < 0.01 | 0.1 to 1 | –
CN1C[C@@H]2C[C@H]1CN2c1ccc(Nc2ncc3c(n2)N(c2ccn(C)n2)[C@@H]2CC(C)(C)OC[C@]32C)cc1 (single isomer, unassigned) [Example 519] | – | – | < 0.01 | 0.1 to 1 | –
CN1CCC(n2cc(Nc3ncc4c(n3)N(c3cccc(N=S(C)(C)=O)c3)[C@@H]3CC(C)(C)OC[C@]43C)cn2)CC1 [Example 716, dimethyl((3-((4bR,8aR)-4b,7,7-trimethyl-2-((1-(1-methylpiperidin-4-yl)-1H-pyrazol-4-yl)amino)-4b,7,8,8a-tetrahydropyrano[3′,4′:4,5]pyrrolo[2,3-d]pyrimidin-9(5H)-yl)phenyl)imino)-16-sulfanone] | – | – | < 0.01 | 1 to 10 | –
CNCc1cccc(N2c3nc(Nc4ccc(N5CCN(C)CC5)cc4)ncc3[C@@]3(C)COC(C)(C)C[C@@H]23)n1 (single isomer, unassigned) [Example 94] | < 0.01 | 0.1 to 1 | – | – | –
CNCc1cccc(N2c3nc(Nc4ccc(C(=O)N5CCOCC5)cc4)ncc3[C@@]3(C)COC(C)(C)C[C@@H]23)n1 (single isomer, unassigned) [Example 24] | < 0.01 | 0.1 to 1 | – | – | –
Cc1ccc(Nc2ncc3c(n2)N(c2cccc(N=S(C)(C)=O)n2)[C@@H]2CC(C)(C)OC[C@]32C)cn1 (single isomer, unassigned) [Example 491] | – | – | < 0.01 | 0.1 to 1 | –
CC1(C)C[C@H]2N(c3cccc(N=S(C)(C)=O)n3)c3nc(Nc4cnn(C5CCOCC5)c4)ncc3[C@@]2(C)CO1 (single isomer, unassigned) [Example 194] | < 0.01 | 0.1 to 1 | – | – | –
CN[C@H](C)c1cccc(N2c3nc(Nc4ccn(C5CCOCC5)c(=O)c4)ncc3[C@@]3(C)COC(C)(C)C[C@@H]23)n1 (single isomer, unassigned) [Example 391] | < 0.01 | 0.1 to 1 | – | – | –
CN1CCN(c2ccc(Nc3ncc4c(n3)N(c3cccc(P(C)(C)=O)n3)[C@@H]3CC(C)(C)OC[C@]43C)cc2)CC1 (single isomer, unassigned) [Example 753] | – | – | < 0.01 | 0.1 to 1 | –
CNCc1cccc(N2c3nc(Nc4ccc([C@@H]5CCOC5)cc4)ncc3[C@@]3(C)COC(C)(C)C[C@@H]23)n1 (single isomer, unassigned) [Example 38] | < 0.01 | < 0.1 | – | – | –
Cc1cc(Nc2ncc3c(n2)N(c2cccc(N4C(=O)OC[C@@H]4C)n2)[C@@H]2CC(C)(C)OC[C@]32C)ccc1N1CCN(C)CC1 (single isomer, unassigned) [Example 237] | < 0.01 | < 0.1 | – | – | –
Cn1cc(Nc2ncc3c(n2)N(c2cccc(N=S(C)(C)=O)n2)[C@@H]2CC(C)(C)OC[C@]32C)nn1 (single isomer, unassigned) [Example 514] | – | – | < 0.01 | 0.1 to 1 | –

— patent US20260166039A1 (SCHRÖDINGER, INC., priority 2022, published 2026)
